This note sets out measurements from patent US5446043A, “Isoquinolyl, quinoxalinyl and quinazolinyl derivatives as inhibitors of 5-lipoxygenase” (Imperial Chemical Industries Plc, priority 1989, dated 1995).

For one experiment, the target named is T1, cyclooxygenase (Homo sapiens, UniProt P23219).
T1 construct: incubating a test compound with heparinised human blood, prior to challenge with the calcium ionophore A23187; endogenous in cells; host or cells: blood cells (chiefly platelets, own knowledge) in heparinised human whole blood
T1 sequence (P23219 24-599): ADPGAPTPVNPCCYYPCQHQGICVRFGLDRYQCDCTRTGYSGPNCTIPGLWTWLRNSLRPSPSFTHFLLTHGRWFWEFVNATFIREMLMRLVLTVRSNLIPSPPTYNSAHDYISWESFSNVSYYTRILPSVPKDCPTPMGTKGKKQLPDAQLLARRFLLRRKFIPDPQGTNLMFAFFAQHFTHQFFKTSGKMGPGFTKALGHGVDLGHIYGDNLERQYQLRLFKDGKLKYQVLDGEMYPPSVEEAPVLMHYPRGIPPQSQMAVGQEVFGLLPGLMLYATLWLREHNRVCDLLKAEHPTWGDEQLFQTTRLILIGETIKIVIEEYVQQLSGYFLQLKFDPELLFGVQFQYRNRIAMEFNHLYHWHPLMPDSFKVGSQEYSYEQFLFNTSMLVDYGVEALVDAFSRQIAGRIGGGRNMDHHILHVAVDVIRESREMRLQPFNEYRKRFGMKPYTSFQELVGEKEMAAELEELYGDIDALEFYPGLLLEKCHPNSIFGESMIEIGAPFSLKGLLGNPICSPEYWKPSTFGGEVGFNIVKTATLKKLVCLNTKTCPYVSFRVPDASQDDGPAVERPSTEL
Kind of experiment: Test b) heparinised human blood challenged with A23187, TxB2 radioimmunoassay (cyclooxygenase). It is filed as cell-based. The following applies: A23187, T×B2. As to the method:
(§1) b) An in vitro assay system involving incubating a test compound with heparinised human blood, prior to challenge with the calcium ionophore A23187 and then indirectly measuring the inhibitory effects on 5-LO by assaying the amount of LTB4 using the specific radioimmunoassay described by Carey and Forder (F. Carey and R. A. Forder, Brit. J. Pharmacol. 1985, 84, 34P) which involves the use of a protein-LTB4 conjugate produced using the procedure of Young et alia (Prostaglandins, 1983, 26(4), 605-613). The effects of a test compound on the enzyme cyclooxygenase (which is involved in the alternative metabolic pathway for arachidonic acid .and gives rise to prostaglandins, thromboxanes and related metabolites) may be measured at the same time using the specific radioimmunoassay for thromboxane B2 (T×B2) described by Carey and Forder (see above). This test provides an indication of the effects of a test compound against 5-LO and also cyclooxgenase in the presence of blood cells and proteins. It permits the selectivity of the inhibitory effect on 5-LO or cyclooxygenase to be assessed.

The target in experiment [1] is T2, 5-LO (Homo sapiens, UniProt P09917).
T2 construct: incubating a test compound with heparinised human blood, prior to challenge with the calcium ionophore A23187; endogenous in cells; host or cells: blood cells in heparinised human whole blood
T2 sequence (P09917 1-674): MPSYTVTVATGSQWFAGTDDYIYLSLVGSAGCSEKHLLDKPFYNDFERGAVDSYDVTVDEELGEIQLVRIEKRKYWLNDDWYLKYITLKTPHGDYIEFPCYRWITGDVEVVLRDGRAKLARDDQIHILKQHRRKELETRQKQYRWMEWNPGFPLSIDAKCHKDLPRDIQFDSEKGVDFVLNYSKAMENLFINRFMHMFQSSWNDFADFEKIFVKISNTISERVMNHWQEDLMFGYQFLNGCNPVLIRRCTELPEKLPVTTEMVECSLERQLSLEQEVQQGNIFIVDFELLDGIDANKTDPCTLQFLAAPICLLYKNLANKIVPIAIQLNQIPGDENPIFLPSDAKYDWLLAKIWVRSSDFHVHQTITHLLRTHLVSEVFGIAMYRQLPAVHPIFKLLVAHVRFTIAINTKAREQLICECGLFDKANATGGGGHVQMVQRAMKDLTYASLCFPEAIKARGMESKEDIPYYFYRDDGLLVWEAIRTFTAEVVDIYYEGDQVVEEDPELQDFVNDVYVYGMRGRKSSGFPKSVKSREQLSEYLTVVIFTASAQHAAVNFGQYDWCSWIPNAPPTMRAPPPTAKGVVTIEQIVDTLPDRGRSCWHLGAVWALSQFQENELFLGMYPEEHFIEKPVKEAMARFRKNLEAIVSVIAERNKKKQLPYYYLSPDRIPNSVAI
Nature of the experiment: Test b) heparinised human blood challenged with A23187, LTB4 radioimmunoassay (5-LO). The following applies: read-out: IC50 against LTB4. It is filed as cell-based. As to the method: as §1

Experiment [2] concerns 5-LO. Nature of the experiment: Test c) ex vivo assay: administration of compound, blood collection, A23187 challenge, LTB4 radioimmunoassay. It is filed as in vivo. As to the method:
c) An ex vivo assay system, which is a variation of test b) above, involving administration of a test compound (usually orally as the suspension produced when a solution of the test compound in dimethylsulphoxide is added to carboxymethylcellulose), blood collection, heparinisation, challenge with A23187 and radioimmunoassay of LTB4 and T×B2. This test provides an indication of the bioavailability of a test compound as an inhibitor of 5-LO or cyclooxygenase.

The structures appear in SMILES notation.

For `CO[C@H]1CCC[C@@]1(OC)c1cccc(OCC#Cc2ccccn2)c1` (relative stereo) [trans-1,2-dimethoxy-1-[3-(3-(2-pyridyl)prop-2-yn-1-yloxy)phenyl]-cyclopentane], the IC50 against cyclooxygenase was above 40 µM; at 5-LO [1] it was 8 µM. Also, in the experiment with 5-LO [2], the “oral ED50 against LTB4” value is recorded as below 100 mg/k.

In general, IC50 refers to the point on the concentration scale where inhibition reaches its midpoint.
